Measured values published in patent publication EP4741392A1, “1H-PYRAZOLO[4,3-C]PYRIDINE COMPOUND, AND COMPOSITION THEREOF AND USE THEREOF” (Shenzhen TargetRx Co., Ltd., priority 2023, dated 2025).
Where two headings read alike, the source gives them in different places.

Experiments:
Format in all cases: cell-based
NIH/3T3 BTK C481S cells = assay: Phosphor-BTK(Y223) assay, adherent cells; settings: read-out: NIH/3T3 BTK-C481S pBTK
Description: (§1) The purpose of this assay was to simply, quickly and directly detect the level of endogenous BTK phosphorylation in cells.
(§2) The steps for handling adherent cells were as follows: • 1) NIH/3T3 BTK WT cells (7.5 k/well) and NIH/3T3 BTK C481S cells (10 k/well) were plated in a 96-well plate, respectively, and cultured at 37 °C and 5% CO2 overnight. • 2) A 3-fold final concentration gradient dilution of a compound was prepared, and 50 µL of it was taken and added to 100 µL of cell culture. 0.5% DMSO was used as a positive control for cell growth. • 3) The plate was incubated at 37 °C and 5% CO2 for 0.5 h. • 4) Na3VO4 at a final concentration of 1mM was added, and the plate was incubated at 37 °C and 5% CO2 for 2 hours. • 5) During the incubation, the following reagents were prepared: • 1x added lysis buffer: 3 vol ddH2O + 1 vol 4x lysis buffer + 100x blocking reagent. • p-BTK (Y223) cryptate-antibody and p-BTK (Y223) d2-antibody working solutions: 1 volume of each cryopreserved antibody (stored at - 20 °C) was added to 19 times the volume of assay buffer (stored at 4 °C). • 6) After the incubation was completed, the medium was removed and 50 µL of 1x added lysis buffer was added. The plate was centrifuged at 500 rpm at room temperature for 30 min. • 7) The lysate was mixed well and 16 µL of it was transferred to a 384-well plate. 1 × added lysis buffer was used as a blank control. • 8) 4 µL of pre-mixed working solutions of the two antibodies (cryptate Ab:d2 Ab = 1:1) was added, and the plate was sealed. • 9) The plate was incubated at room temperature overnight. 10) The plate was read at 665nm and 620nm using Biotek cytation3.0 microplate reader, and the ratio of 665/620nm of each well was calculated.
(§3) The IC50 (half-maximal phosphorylation inhibitory concentration) of the phosphorylated BTK Y223 of the compound was obtained using the following nonlinear fitting formula: Y = Bottom + (Top−Bottom)/(1+10^(∧)((LogIC50−X)*HillSlope)) [formula] • X: Log value of the compound concentration • Y: Inhibition rate (% inhibition) • Top: Maximum response • Bottom: Baseline response • HillSlope: Slope of the curve
(§4) The formula for calculating cell phosphorylation inhibition rate (inhibition rate %) was: Inhibition rate% = 1−(eachconcentrationwell-blankwell)/(positivecontrolwell−blankwell) [formula]

NIH/3T3 BTK WT cells = assay: Phosphor-BTK(Y223) assay, adherent cells; settings: read-out: NIH/3T3 BTK-WT pBTK
Description: as §1, §2, §3, §4

Ramos cells with BTK WT = assay: Phosphor-BTK(Y223) assay, suspended cells; settings: phosphorylated BTK Y223, Ramos cells with BTK WT
Description: as §1
The steps for handling suspended cells were as follows: • 1) Ramos cells with BTK WT (2.5 k/well), BTK C481S (2.5 k/well), or BTK T474I (2.5 k/well) were plated in a 96-well plate, respectively. A compound of different concentration gradients was added using Tecan D300e, and the plate was incubated at 37 °C and 5% CO2 for 2 hours. • 2) 8.33 µL of 20 mM Na3VO4 was added to bring the final concentration to 5 mM, and the plate was incubated at 37 °C and 5% CO2 for 3 h. • 3) During the incubation, the following reagents were prepared: • 4x added lysis buffer: 24 vol 4x lysis buffer + 1 vol 25x blocking reagent. • p-BTK (Y223) cryptate-antibody and p-BTK (Y223) d2-antibody working solutions: 1 volume of each cryopreserved antibody (stored at - 20 °C) was added to 38 times the volume of assay buffer (stored at 4 °C), and mixed well. • 4) After the incubation was completed, 11.1 µL of 4x added lysis buffer was directly added. The plate was shaken at 800 rpm at room temperature for 30 min. • 5) The lysate was mixed well and 16 µL of it was transferred to a 384-well plate. 1 × added lysis buffer was used as a blank control. • 6) 4 µL of pre-mixed working solutions of the two antibodies (cryptate Ab:d2 Ab = 1:1) was added, and the plate was sealed. • 7) The plate was incubated at room temperature overnight. • 8) The plate was read at 665nm and 620nm using Biotek cytation3.0 microplate reader, and the ratio of 665/620nm of each well was calculated. Data analysis: IC50 was calculated using GraphPad Prism 7.0 software.
as §3, §4

[1] = Mus musculus, NIH3T3, phosphorylated BTK Y223, NIH/3T3 BTK C481S cells
[2] = Mus musculus, NIH3T3, phosphorylated BTK Y223, NIH/3T3 BTK WT cells

Compound | IC50 (NIH/3T3 BTK C481S cells; [1]) | IC50 (NIH/3T3 BTK WT cells; [2]) | IC50 (Ramos cells with BTK WT; Homo sapiens, Ramos) | IC50 (NIH/3T3 BTK C481S cells; phosphorylated BTK Y223, NIH/3T3 BTK C481S cells) | IC50 (NIH/3T3 BTK WT cells; phosphorylated BTK Y223, NIH/3T3 BTK WT cells) | IC50 (Ramos cells with BTK WT)
COc1ccc(F)cc1C(=O)NCc1ccc(-c2ncc(-c3ccnnc3)c3[nH]nc(N)c23)cc1 [Example 20, N-(4-(3-amino-7-(pyridazin-4-yl)-1H-pyrazolo[4,3-c]pyridin-4-yl)benzyl)-5-fluoro-2-methoxybenzamide] | > 50 nM | > 50 nM | > 50 nM |  |  | 
COc1ccc(F)cc1C(=O)NCc1ccc(-c2nc(Cl)cc3[nH]nc(N)c23)cc1 [Example 94, N-(4-(3-amino-6-chloro-1H-pyrazolo[4,3-c]pyridin-4-yl)benzyl)-5-fluoro-2-methoxybenzamide] | > 50 nM | > 50 nM | > 50 nM |  |  | 
N-(4-(3-amino-7-(1,7-naphthyridin-2-yl)-1H-pyrazolo[4,3-c]pyridin-4-yl)benzyl)-5-fluoro-2-methoxybenzamide [Example 49] |  |  |  | > 50 nM | > 50 nM | > 50 nM
COc1ccc(F)cc1C(=O)NCc1ccc(-c2ncc(-c3cnc4ccnn4c3)c3[nH]nc(N)c23)cc1 [Example 34, N-(4-(3-amino-7-(pyrazolo[1,5-a]pyrimidin-6-yl)-1H-pyrazolo[4,3-c]pyridin-4-yl)benzyl)-5-fluoro-2-methoxybenzamide] | > 50 nM | > 50 nM | > 50 nM |  |  | 
COc1ccc(F)cc1C(=O)NCc1ccc(-c2nc(C(C)C(F)(F)F)c(-c3ccc(C(F)(F)F)cn3)c3[nH]nc(N)c23)cc1 (centres unmarked) [Example 12, N-(4-(3-amino-7-(5-(trifluoromethyl)pyridin-2-yl)-6-(1,1,1-trifluoropropan-2-yl)-1H-pyrazolo[4,3-c]pyridin-4-yl)benzyl)-5-fluoro-2-methoxybenzamide] | > 50 nM | > 50 nM | > 50 nM |  |  | 
COc1ccc(F)cc1C(=O)NCc1ccc(-c2cc(C(C)C(F)(F)F)cc3[nH]nc(N)c23)cc1 (centres unmarked) [Example 86, N-(4-(3-amino-6-(1,1,1-trifluoropropan-2-yl)-1H-indazol-4-yl)benzyl)-5-fluoro-2-methoxybenzamide] | > 50 nM | > 50 nM |  |  |  | 
COc1ccc(F)cc1C(=O)NCc1ccc(-c2nc(C(C)C(F)(F)F)c(-c3ccccc3)c3[nH]nc(N)c23)cc1 (centres unmarked) [Example 14, N-(4-(3-amino-7-phenyl-6-(1,1,1-trifluoropropan-2-yl)-1H-pyrazolo[4,3-c]pyridin-4-yl)benzyl)-5-fluoro-2-methoxybenzamide] | > 50 nM | > 50 nM | > 50 nM |  |  | 
COc1ccc(F)cc1C(=O)NCc1ccc(-c2nccc3[nH]nc(N)c23)cc1 [Example 116, N-(4-(3-amino-1H-pyrazolo[4,3-c]pyridin-4-yl)benzyl)-5-fluoro-2-methoxvbenzamide] | > 50 nM | > 50 nM | > 50 nM |  |  | 
COc1ccc(F)cc1C(=O)NCc1ccc(-c2ncc(-c3ccnc4ccnn34)c3[nH]nc(N)c23)cc1 [Example 111, N-(4-(3-amino-7-(pyrazolo[1,5-a]pyrimidin-7-yl)-1H-pyrazolo[4,3-c]pyridin-4-yl)benzyl)-5-fluoro-2-methoxybenzamide] | > 50 nM | > 50 nM | > 50 nM |  |  | 
COc1ccc(F)cc1C(=O)NCc1ccc(-c2nc(C(C)C(F)(F)F)c(-c3ccc(F)cn3)c3[nH]nc(N)c23)cc1 (centres unmarked) [Example 13, N-(4-(3-amino-7-(5-fluoropyridin-2-yl)-6-(1,1,1-trifluoropropan-2-yl)-1H-pyrazolo[4,3-c]pyridin-4-yl)benzyl)-5-fluoro-2-methoxybenzamide] | > 50 nM | > 50 nM | > 50 nM |  |  | 
COc1ccc(F)cc1C(=O)NCc1ccc(-c2ncc(-c3cnc4cnccn34)c3[nH]nc(N)c23)cc1 [Example 64, N-(4-(3-amino-7-(imidazo[1,2-a]pyrazin-3-yl)-1H-pyrazolo[4,3-c]pyridin-4-yl)benzyl)-5-fluoro-2-methoxybenzamide] | > 50 nM | > 50 nM | > 50 nM |  |  | 
COc1ccc(F)cc1C(=O)NCc1ccc(-c2ncc(C(=O)NC3CC3)c3[nH]nc(N)c23)cc1 [Example 81, 3-amino-N-cyclopropyl-4-(4-((5-fluoro-2-methoxybenzoylamino)methyl)phenyl)-1H-pyrazolo[4,3-c]pyridine-7-carboxamide] | > 50 nM | > 50 nM | > 50 nM |  |  | 
COc1ccc(F)cc1C(=O)NCc1ccc(-c2nc(C3CCN(C(=O)Nc4ccccc4)CC3)cc3[nH]nc(N)c23)cc1 [Example 97, 4-(3-amino-4-(4-((5-fluoro-2-methoxvbenzoylamino)methyl)phenyl)-1H-pyrazolo[4,3-c]pyridin-6-yl)-N-phenylpiperidine-1-carboxamide] | > 50 nM | > 50 nM | 5 to 10 nM |  |  | 
COc1ccc(F)cc1C(=O)NCc1ccc(-c2nc(-c3ccccc3C)cc3[nH]nc(N)c23)cc1 [Example 87, N-(4-(3-amino-6-(o-tolyl)-1H-pyrazolo[4,3-c]pyridin-4-yl)benzyl)-5-fluoro-2-methoxybenzamide] | > 50 nM | > 50 nM | > 50 nM |  |  | 
COc1ccc(F)cc1C(=O)NCc1ccc(-c2ncc(-c3ccc(F)cn3)c3[nH]nc(N)c23)c(C)c1 [Example 83, N-(4-(3-amino-7-(5-fluoropyridin-2-yl)-1H-pyrazolo[4,3-c]pyridin-4-yl)-3-methylbenzyl)-5-fluoro-2-methoxybenzamide] | > 50 nM | 10 to 50 nM | > 50 nM |  |  | 
COc1ccc(F)cc1C(=O)NCc1ccc(-c2nc(-c3ccc(C(=O)O)cc3)cc3[nH]nc(N)c23)cc1 [Example 90, 4-(3-amino-4-(4-((5-fluoro-2-methoxybenzoylamino)methyl)phenyl)-1H-pyrazolo[4,3-c]pyridin-6-yl)benzoic acid] | > 50 nM | > 50 nM | > 50 nM |  |  | 
COc1ccc(F)cc1C(=O)NCc1ccc(-c2ncc(-c3ncn4ccccc34)c3[nH]nc(N)c23)cc1 [Example 113, N-(4-(3-amino-7-(imidazo[1,5-a]pyridin-1-yl)-1H-pyrazolo[4,3-c]pyridin-4-yl)benzyl)-5-fluoro-2-methoxybenzamide] | ≤ 5 nM | ≤ 5 nM | ≤ 5 nM |  |  | 
COc1ccc(F)cc1C(=O)NCc1ccc(-c2nc(C(C)C(F)(F)F)c(-c3ccnnc3)c3[nH]nc(N)c23)cc1 (centres unmarked) [Example 11, N-(4-(3-amino-7-(pyridazin-4-yl)-6-(1,1,1-trifluoropropan-2-yl)-1H-pyrazolo[4,3-c]pyridin-4-yl)benzyl)-5-fluoro-2-methoxybenzamide] | > 50 nM | > 50 nM | > 50 nM |  |  | 
COc1ccc(F)cc1C(=O)NCc1ccc(-c2nc(C3CCCN(C(=O)Nc4ccccc4)C3)cc3[nH]nc(N)c23)cc1 (centres unmarked) [Example 95, 3-(3-amino-4-(4-((5-fluoro-2-methoxybenzoylamino)methyl)phenyl)-1H-pyrazolo[4,3-c]pyridin-6-yl)-N-phenylpiperidine-1-carboxamide] | > 50 nM | > 50 nM | 5 to 10 nM |  |  | 
